Tests used:
Coriolus versicolor (Cv) = assay: Antifungal agar-plate method; assay type: cell-based; settings: Trametes versicolor, read-out: Antifungal activity (inhibition of mycelial growth); for inhibition of growth at 0.0001 %: concentration 0.0001%; for inhibition of growth at 0.001 %: concentration 0.001%; for inhibition of growth at 0.01 %: concentration 0.01%; for inhibition of growth at 0.1 %: concentration 0.1%
Experimental: (§1) Fungal strains: Coriolus versicolor (Cv), Poria placenta (Pp), Coniophora puteana (Cp) and Gloeophyllum trabeum (Gt) were used as a test organism for the experimental determination of the antifungal activity of 1–11. The fungus were obtained from the collection of the Department of Wood Chemical Technology, Faculty of Forestry and Wood Technology, Poznań, University of Life Sciences, Poland. The fungal growth rates were measured in 90 mm-diameter plastic dishes using the agar-plate method, described by Ważny and Thorton. Five concentrations of gramine and its derivatives in the range of 0.1% to 0.00001% were studied. The compound was applied on the agar (2% agar and 5% malt-extract) prepared on the Petri dish and previously autoclaved. The combination of the compound and fungus was repeated three times. Given sample was centrally inoculated with a 5 mm diameter disc taken from the submargin of 5-day-old malt agar plates. The plates were incubated in darkness at 21 ± 2 °C and 70 ± 5% relative air humidity. The growth duration was determined by the total coverage of the reference plate. The radius of the area covered by the fungus compared with the reference agar plate was employed to calculate the effective doses, ED50, of preservative concentrations retarding the fungal growth rate by 50%.

Coniophora puteana (Cp) = assay: Antifungal agar-plate method; assay type: cell-based; settings: Coniophora puteana, read-out: Antifungal activity (inhibition of mycelial growth); for inhibition of growth at 0.0001 %: concentration 0.0001%; for inhibition of growth at 0.001 %: concentration 0.001%; for inhibition of growth at 0.01 %: concentration 0.01%; for inhibition of growth at 0.1 %: concentration 0.1%
Experimental: as §1

[1] = test system: Gloeophyllum trabeum (Gt); assay: Antifungal agar-plate method; assay type: cell-based; settings: Gloeophyllum trabeum, read-out: Antifungal activity (inhibition of mycelial growth); for inhibition of growth at 0.0001 %: concentration 0.0001%; for inhibition of growth at 0.001 %: concentration 0.001%; for inhibition of growth at 0.01 %: concentration 0.01%; for inhibition of growth at 0.1 %: concentration 0.1%
Experimental: as §1

Poria placenta (Pp) = assay: Antifungal agar-plate method; assay type: cell-based; settings: read-out: Antifungal activity (inhibition of mycelial growth); for inhibition of growth at 0.0001 %: concentration 0.0001%; for inhibition of growth at 0.001 %: concentration 0.001%; for inhibition of growth at 0.01 %: concentration 0.01%; for inhibition of growth at 0.1 %: concentration 0.1%
Experimental: as §1

Escherichia coli = assay: Antibacterial well-diffusion method; assay type: cell-based; settings: 0.1 mL of compound in DMSO, 48 h, 37 °C
Experimental: (§2) The antimicrobial properties of compounds were determined against selected bacteria: Micrococcus luteus, Bacillus subtilis, Escherichia coli and Pseudomonas fluorescens which came from the collection of Pure Cultures of the Facility of Microbiology of the Department of Soil Science and Microbiology of the Poznan University of Life Sciences. The well-diffusion method was used to evaluate the antimicrobial properties of compounds. 6 mL each of liquidized broth medium was poured into sterile Petri dishes and allowed to solidify. After which, two sterile glass rings with a diameter of 0.5 cm were placed on the surface of each plate. Then 20 mL each of liquid broth medium containing suspensions of the tested bacterial strains at a density of 10^7 cells/cm3, obtained from 48-h cultures on broth […], was introduced. After the medium solidified, the glass rings were removed with a pencil, obtaining two wells on each plate. 0.1 mL of compound dissolved in pure dimethyl sulphoxide was introduced into one well, and 0.1 mL of pure dimethyl sulphoxide was introduced into the other well, which was as a control. Each compound was tested in four replicates. The plates were incubated for 48 h in a thermostat at 27 °C for M. luteus, B. subtilis and P. fluorescens cultures, and the E. coli culture at 37 °C. At the end of the incubation, the diameters of growth inhibition of the tested strains were measured using calipers.

Micrococcus luteus = assay: Antibacterial well-diffusion method; assay type: cell-based; settings: Micrococus luteus, 0.1 mL of compound in DMSO, 48 h, 27 °C
Experimental: as §2

Bacillus subtilis = assay: Antibacterial well-diffusion method; assay type: cell-based; settings: 0.1 mL of compound in DMSO, 48 h, 27 °C
Experimental: as §2

Pseudomonas fluorescens = assay: Antibacterial well-diffusion method; assay type: cell-based; settings: 0.1 mL of compound in DMSO, 48 h, 27 °C
Experimental: as §2

[2] = test system: human red blood cells (RBC); assay: Hemolysis assay under the compounds tested; assay type: cell-based; settings: 0.1 mg/mL, 60 min, 37 °C, PBS pH 7.4
Experimental: The erythrocytes were washed three times (3000 rpm, 10 min, +4 °C) in 7.4 pH phosphate buffered saline (PBS: 137 mM NaCl, 2.7 mM KCl, 10 mM Na2HPO4, 1.76 mM KH2PO4) supplemented with 10 mM glucose. After washing, RBC were suspended in the PBS buffer at 1.65 × 10^9 cells/mL, stored at +4 °C, and used within 5 h.
The cytotoxic activity of the compounds tested was determined by a standard hemolytic assay according to Mrówczyńska and Hägerstrand [57]. Briefly, RBC (1.65 × 10^8 cells/mL, ~1.5% hematocrit) were incubated in PBS buffer (7.4 pH) supplemented with 10 mM glucose and containing compounds tested (0.1 mg/mL) for 60 min at 37 °C in a shaking water bath. Samples with RBC incubated in PBS without compounds tested were taken as the control. Each sample was repeated three times, and the experiments were repeated 3 times with RBC from different donors. After incubation, the RBC suspensions were centrifuged (3000 rpm, 10 min), and the degree of hemolysis was estimated by measuring the absorbance (Ab) of the supernatant at 540 nm. The results were expressed as a percentage (%) of hemolysis which was determined using the following equation:Hemolysis (%) = (sample Ab/positive control Ab) × 100% were positive control is Ab of supernatant of RBC in ice-cold H2O.

[3] = Ferrous ions (Fe2+) chelating activity (ferrozine); settings: 0.1 mg/mL, 10 min, room temperature
Experimental: Ferrous ions (Fe^2+) chelating activity was evaluated by inhibition of the formation of Fe^2+-ferrozine complex after incubation of the compounds tested with Fe^2+. The Fe^2+-chelating ability of compounds tested was determined by the absorbance of the ferrous ion-ferrozine complex at 562 nm. In brief, 0.1 mg/mL concentration of the compounds tested in 0.2 mL ethyl alcohol were added to a solution of 0.6 mM FeCl2 (0.05 mL). EDTA (ethylenediaminetetraacetic acid) was used as the standard EDTA chelating agent. The reaction was started by the addition of 5 mM ferrozine (0.05 mL) in ethyl alcohol and shaken vigorously immediately. The samples were stored for 10 min at room temperature (~22 °C). Following incubation, the absorbance (Abs) of the solutions was measured at 562 nm in a spectrophotometer. The percentage of inhibition of ferrozine—Fe^2+ complex formation was calculated using the equation: Fe^2+ chelating effect (%) = [1 − (Abs1/Abs0)] × 100% where Abs0 is the absorbance of the sample without the tested compound and Abs1 is the absorbance in the presence of the compound tested. Each sample was made in triplicate, and three independent experiments were performed.

Row | melting point | Structure (SMILES) | inhibition of growth at 0.0001 % (Coriolus versicolor (Cv)) | inhibition of growth at 0.001 % (Coriolus versicolor (Cv)) | inhibition of growth at 0.01 % (Coriolus versicolor (Cv)) | inhibition of growth at 0.1 % (Coriolus versicolor (Cv)) | inhibition of growth at 0.0001 % (Coniophora puteana (Cp)) | inhibition of growth at 0.001 % (Coniophora puteana (Cp)) | inhibition of growth at 0.01 % (Coniophora puteana (Cp)) | inhibition of growth at 0.1 % (Coniophora puteana (Cp)) | inhibition of growth at 0.0001 % [1] | inhibition of growth at 0.001 % [1] | inhibition of growth at 0.01 % [1] | inhibition of growth at 0.1 % [1] | inhibition of growth at 0.0001 % (Poria placenta (Pp)) | inhibition of growth at 0.001 % (Poria placenta (Pp)) | inhibition of growth at 0.01 % (Poria placenta (Pp)) | inhibition of growth at 0.1 % (Poria placenta (Pp)) | Zone of Growth Inhibition (Escherichia coli) | Zone of Growth Inhibition (Micrococcus luteus) | Zone of Growth Inhibition (Bacillus subtilis) | other results
1 | 173 to 174 °C | Cc1nccn1Cc1c[nH]c2ccccc12 [Compound 3, 3-((2-methyl-1H-imidazol-1-yl)methyl)-1H-indole] | 0% | 1% | 35% | 100% | 0% | 0% | 48% | 100% | 15% | 19% | 44% | 100% | 0% | 0% | 48% | 100% | 1 mm | 3 mm | 1 mm | Zone of Growth Inhibition (Pseudomonas fluorescens): 16 mm; Hemolytic activity [2]: 3.6%
2 | 214 to 216 °C | c1ccc2c(c1)ncn2Cc1c[nH]c2ccccc12 [Compound 9, 1-((1H-indol-3-yl)methyl)-1H-benzo[d]imidazole] | 0% | 6% | 44% | 100% | 0% | 0% | 40% | 100% | 17% | 28% | 48% | 100% | 0% | 23% | 37% | 100% | 3 mm | 4.3 mm | 2.7 mm | Chelating activity [3]: 4%; Zone of Growth Inhibition (Pseudomonas fluorescens): 0 mm; Hemolytic activity [2]: 23%

From paper PMC9867442, “Indole Derivatives Bearing Imidazole, Benzothiazole-2-Thione or Benzoxazole-2-Thione Moieties—Synthesis, Structure and Evaluation of Their Cytoprotective, Antioxidant, Antibacterial and Fungicidal Activities” (Molecules, 2023)
